From US20260139222A1, “SYSTEMS WITH BIO-ENGINEERED ADHESIVE SILOXANE SUBSTRATE OF TUNABLE STIFFNESS AND METHODS OF USE THEREOF” (NUTECH VENTURES, priority 2022, published 2026)
“Also recorded” adds a separate entry of the source.

Legend:
[1] = tested on: Nrf2-related genes in HTR8 cells; conditions: sulforaphane treatment
Description: Sulforaphane (SFN) is a naturally occurring compound present in cruciferous vegetables like broccoli, watercress, Brussels sprouts, cabbage, and cauliflower. […] As a potent Nrf2 activator, SFN affects the expression of approximately 200 genes, including those involved in antioxidant and anti-inflammatory processes. To explore the impact of sulforaphane treatment on the expression levels of Nrf2-related genes, HTR8 cells were cultured on 8 kPa, 25 kPa, and 55 kPa BEASTS surfaces and the gene expression was analyzed by RT-PCR.
Gene Expression analysis of the HTR8 cells: Cells were cultured on BEASTS substrates of different stiffness levels (8 kPa, 25 kPa, and 55 kPa) for four days. After the culture, the total RNA was isolated from the HTR8 cells using Trizol following the manufacturer's instructions. RNA was extracted from the aqueous phase of the cell lysates by adding chloroform, followed by
RNA precipitation using isopropyl alcohol and rinsed with 75% ethanol. The RNA pellet was quantified and quality-checked using a spectrophotometer and then reverse-transcribed using the iScript™ cDNA synthesis kit. Subsequently, the relative expression levels of the target genes were analyzed using quantitative real-time PCR with SYBR Green Master Mix, and GAPDH was used as the housekeeping gene. The […] was employed for data analysis.

caspases 3, 5, and 6 = assay: Non-canonical caspase activity (with Ac-YVAD-CHO) in microglia; assay type: cell-based, human; conditions: NAC pre-treatment
Description: (§1) Caspase-1 and Non-canonical Inflammasome Activity Assays: Detection of caspase-1 and non-canonical caspases using a luciferase assay was performed using Caspase-Glo™ Inflammasome Assay (Cat #G9951; Promega, Madison WI, USA) according to the manufacturer's instructions. Briefly, microglial cells were grown in 12-well plates on differing stiffness for 11 days and then plated with a selective caspase-1 substate, Z-WEHD, for catalytically active caspase-1 with or without a caspase-1 specific inhibitor, Ac-YVAD-CHO, to confirm specific activity in parallel samples. The Ac-YVAD-CHO has minimal effect on other cross-reacting caspases 3, 5, and 6, thereby, representing non-canonical inflammatory caspase activity. Total luminescence was measured using a Synergy™ 2 multi-mode microplate reader (BioTek, VT, USA). NAC administration in microglial cells: NAC was purchased (Sigma-Aldrich, St. Louis, MO, USA) and was used in treatment after seeding microglial cells for 3 hours with a 2×PBS wash, then replaced with microglia media every 72 hours. Concentrations of 0.25 and 2.5 mM were used 36. Microglia were grown for 11 days and then assessed using qRT-PCR, counting, and luminescent assays.

caspase-1 = target: T1, caspase-1 (Homo sapiens, UniProt P29466); assay: Intracellular caspase-1 activity, bioluminescent assay of microglia; assay type: cell-based; conditions: NAC pretreatment
T1 construct: endogenous in cells; host or cells: microglial cells (HMC3 inferred)
T1 sequence (P29466 120-297 limits assumed): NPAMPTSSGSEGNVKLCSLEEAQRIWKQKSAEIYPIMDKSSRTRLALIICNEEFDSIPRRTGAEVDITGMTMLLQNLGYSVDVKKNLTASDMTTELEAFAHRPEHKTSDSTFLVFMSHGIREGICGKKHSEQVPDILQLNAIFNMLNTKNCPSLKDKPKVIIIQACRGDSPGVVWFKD
T1 sequence (P29466 317-404 limits assumed): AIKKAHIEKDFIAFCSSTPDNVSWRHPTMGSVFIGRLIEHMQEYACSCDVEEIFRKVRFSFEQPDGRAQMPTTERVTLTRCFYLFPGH
Description: as §1, with “USA).” for “USA). NAC administration in microglial cells: NAC was purchased (Sigma-Aldrich, St. Louis, MO, USA) and was used in treatment after seeding microglial cells for 3 hours with a 2×PBS wash, then replaced with microglia media every 72 hours. Concentrations of 0.25 and 2.5 mM were used 36. Microglia were grown for 11 days and then assessed using qRT-PCR, counting, and luminescent assays.”
(§2) NAC administration in microglial cells: NAC was purchased (Sigma-Aldrich, St. Louis, MO, USA) and was used in treatment after seeding microglial cells for 3 hours with a 2×PBS wash, then replaced with microglia media every 72 hours. Concentrations of 0.25 and 2.5 mM were used 36. Microglia were grown for 11 days and then assessed using qRT-PCR, counting, and luminescent assays.

HMC3 microglia [2] = assay: Morphology of HMC3 microglia on BEASTS surfaces after NAC pretreatment; assay type: cell-based, human; conditions: 0.25 mM NAC pretreatment; after 11 days; all stiffnesses
Description: To investigate the protective effect of NAC on stiffness-activated microglia, microglial cells were pretreated with 0.25 and 2.5 mM NAC prior to seeding. After 11 days, the morphology was ramified across all treatments with 0.25 mM NAC (FIG. 17A). ROS production was then measured. […] Next, the genotypes of untreated microglia were compared with NAC-treated microglia and an attenuation was found in each transcript. […] Additionally the MI profile correspondingly attenuated and mechanosensors; however, the M2 marker PPARG increased. To investigate the influence of NAC on caspase-1 stiffness-driven inflammation, the activity of caspase-1 was measured. The activity was reduced in 2 and 8 kPa; however, 25 kPa had increased caspase-1 activity, corroborating the findings with the loss of the CX3CR1 transcript (FIGS. 17E and 17F). […] Together, these findings indicate that pre-treatment of NAC attenuates ROS-driven dysfunction in stiffness-activated microglia. […] BV2 mouse microglia and HMC3 human cells: All cells were grown in aseptic conditions following standard cell culture protocol and stored in an incubator set at 37° C. with 5% CO2. […] Microglia were grown for 11 days and then assessed using qRT-PCR, counting, and luminescent assays.

HMC3 microglia [3] = assay: Microglial proliferation and growth on stiffness after NAC pretreatment; assay type: cell-based, human
Description: Cell Count and Growth Analysis: Microglia were seeded in triplicate (7.5×10^5 cells/well) in a 12-well plate and the growth of cells was counted every other day, after which the stiffer matrices reached 100% confluency. At 48 h intervals, cells were trypsinized and counted using trypan blue exclusion tests. The doubling time of each stiffness was calculated with the following formula: […], where C_start is the number of cells at the beginning (day 0), C_end is the number of cells after a period of time t and T is the doubling time. NAC administration in microglial cells: NAC was purchased (Sigma-Aldrich, St. Louis, MO, USA) and was used in treatment after seeding microglial cells for 3 hours with a 2×PBS wash, then replaced with microglia media every 72 hours. Concentrations of 0.25 and 2.5 mM were used 36. Microglia were grown for 11 days and then assessed using qRT-PCR, counting, and luminescent assays.

HMC3 microglia [4] = assay: Total intracellular ROS (H2DCFDA dye) in microglia on stiffness after NAC pretreatment; assay type: cell-based, human; conditions: NAC-pre-treated microglia; 11 days on stiffness (2, 8, 25 kPa)
Description: ROS Quantification and Imaging: 5-(and6)-Chloromethyl-2′,7′-dichlorodihydro-fluorescein diacetate (CM-H2DCFDA) is a fluorescent indicator activated by the presence of ROS. The intensity of CM-H2DCFDA was measured by calculating the corrected total cell fluorescence (CTCF) from The Open Lab Book Imaging protocols. Microglial cells were plated onto 12-well plates at a density of 75,000 cells/mL. Microglial cells were grown to confluency and then 10 μM DCF-DA (Invitrogen) was added to all wells, and cells were incubated for a further 30 minutes before analysis of ROS-activated DCF-DA fluorescence (FL-1/525 nm).
as §2

HMC3 microglia [5] = assay: qRT-PCR gene expression in microglia with and without NAC pretreatment; assay type: cell-based, human
Description: NAC administration in microglial cells: NAC was purchased (Sigma-Aldrich, St. Louis, MO, USA) and was used in treatment after seeding microglial cells for 3 hours with a 2×PBS wash, then replaced with microglia media every 72 hours. Concentrations of 0.25 and 2.5 mM were used 36. Microglia were grown for 11 days and then assessed using qRT-PCR, counting, and luminescent assays. Gene Expression by Quantitative RT-PCR (qRT-PCR): Total RNA expression was extracted from microglial cells using TRIzol reagent (Invitrogen, CA, USA) and RNA samples were quantified by Take3 Micro-Volume Plate reader (BioTek, VT, USA) by spectrophotometry at 260/280 nm. Purity was assessed by an absence of 320 nm. RNA samples were reverse transcribed using the M-MuLV RT reagent Kit (New England BioLabs, MA, USA). Relative mRNA levels were determined by real-time PCR using a SYBR® PowerUp master mix and a real-time PCR detection system (Mastercycler Realplex ep gradient, Eppendorf, Hamburg, Germany). Data were expressed in Ct values normalized to 18S and […] between control (2 kPa) and treated groups (8, 15, 25 kPa) was determined using the 2-ΔΔCt method. The telomerase-associated genes were probed using the TaqManTM Array Human Telomere Extension by Telomerase (Applied Biosystems #4414187) with multiple plates. Briefly, samples were loaded with SYBR® PowerUp master mix and a real-time PCR detection system (Mastercycler Realplex ep gradient, Eppendorf, Hamburg, Germany). Data were expressed in Ct values normalized to endogenous controls provided with the array and […] and older change between groups was determined using the 2-ΔΔCt method.

[6] = HTR8 cells, all three stiffness levels (8, 25, 55 kPa)

## C[S+]([O-])CCCCN=C=S (stereo not shown) [sulforaphane, Sulforaphane]
[1]; HTR8 cells on 8 kPa, 25 kPa, and 55 kPa BEASTS surfaces, RT-PCR
  expression levels of Nrf2-related genes: increase
[1]; HTR8 cells, 8 kPa and 55 kPa
  GCLM gene expression: markedly upregulated
[1]; HTR8 cells, 55 kPa
  HMOX1 gene expression: markedly upregulated
[1]; [6]
  GSR gene expression: significantly upregulated
  NQO1 gene expression: significantly upregulated

## CC(=O)N[C@@H](CS)C(=O)O [NAC, N-Acetyl-l-Cysteine]
Caspases 3, 5, and 6; 2 and 8 kPa
  activity of non-canonical caspases: reduced
Caspases 3, 5, and 6; elevated activity at 25 kPa
  activity of non-canonical caspases: attenuated
caspase-1; 2 and 8 kPa
  caspase-1 activity: reduced
caspase-1; 25 kPa
  caspase-1 activity: increased
HMC3 microglia [2]
  microglial morphology: ramified
HMC3 microglia [3]
  stiffness-induced microglial proliferation / growth: mitigates; also recorded: slows
HMC3 microglia [4]
  ROS production: mitigates; also recorded: significantly reduced; also recorded: ameliorates
HMC3 microglia [5]; 0.25 mM NAC pretreatment, RT-qPCR, 2, 8, 25 kPa
  transcripts of NAC-treated versus untreated microglia: attenuation
HMC3 microglia [5]; NAC pretreatment, HMC3 cell line on stiffness
  inflammatory phenotype of microglia: ameliorates
HMC3 microglia [5]; NAC pretreatment, qRT-PCR
  PTGS2 expression: decrease
  YAP1 expression: decrease
HMC3 microglia [5]; NAC-treated microglia
  M1 inflammatory profile (printed MI profile): attenuated
  PPARG (M2 marker) expression: increased
HMC3 microglia [5]; NAC-treated microglia, 25 kPa
  CX3CR1 (steady-state marker) expression: decreased substantially
